Tests used:
[1] = biological target: human KHK in HepG2 Cells (Homo sapiens (Human), UniProt P50053); assay: Cell-based potency assay (HepG2 assay), F1P by LC/MS; settings: fructose 20 mM, 20 min, F1P produced
Description: Testing inhibition effect of compounds against human KHK in HepG2 Cells
(§1) HepG2 cells were grown in RPMI1640 supplemented media on 100 mm plates to near confluency (about 5-8×10^6 cells). The growth media was aspirated and 4 mL trypsin solution (0.25% (w/v)+0.25% (w/v) EDTA) was added, followed by incubation at 37° C. for 5-10 mins. The cells were pelleted and resuspended in 2 mL complete media.
The cells were then placed in a 96 well plate at 20,000-50,000 cells per well and grown for 20-28 hours at 37° C. to allow adherence.
Inhibitor compounds were diluted in DMSO to 50 μM, then serially diluted with MEM media (ThermoFisher). Final inhibitor concentration ranged from 1000 nM to 0.064 nM (5-fold dilution series).
The RPMI medium was removed from the plate of confluent cells. The plate was then incubated for 35 min at 37°, after which were added 0.1 mL of the diluted inhibitor compounds in MEM with fructose, 0.1 mL of MEM media without inhibitor compound or fructose, or trypsin; yielding a final concentration of fructose at 20 mM. The plate was subsequently incubated for 20 min at 37°, then placed on ice to stop the reactions.
Next, 200 μL of cold 80% (v/v) methanol:water was added to all wells, except the controls used to enumerate cell count. The plate was vortexed and cell debris removed by centrifugation. To measure F1P produced, the resulting supernatant fraction was analyzed by LC/MS.

[2] = biological target: Rat recombinant KHK-A (Rattus norvegicus (Rat), UniProt Q02974); assay: KHK inhibition assay, recombinant isozyme (coupled pyruvate kinase/LDH, NADH absorbance 340 nm); format: biochemical; settings: recombinant isozyme 6 nM, fructose 2 mM, ATP 0.1 mM
Description: (§2) Determination of Human and Rat recombinant KHK-A and KHK-C isozyme IC50 Values
(§3) An assay reagent cocktail was prepared by combining NADH, water, TEA, KCl, MgCl2, PEP, ATP, DTT, coupling enzymes (pyruvate kinase and lactate dehydrogenase, LDH) to final concentrations as shown in Table B.
(§4) To this was added the relevant KHK isozyme to a final concentration of 6 nM. Aliquots of each inhibitor compound were diluted via 5-fold serial dilutions to produce final concentrations ranging from 1000 nM to 0.064 nM. The inhibitor aliquots were added to the assay reagent cocktail containing KHK with fructose (at a concentration of 2 mM) in a 96-well plate. The absorbance at 340 nm was measured via spectrophotometry and inhibition was analyzed using non-linear regression.

[3] = biological target: Human recombinant KHK-C (Homo sapiens (Human), UniProt P50053); assay: as above; format: biochemical; settings: recombinant isozyme 6 nM, fructose 2 mM, ATP 0.1 mM
Description: as §2, §3, §4

[4] = biological target: Rat recombinant KHK-C (Rattus norvegicus (Rat), UniProt Q02974); assay: as above; format: biochemical; settings: recombinant isozyme 6 nM, fructose 2 mM, ATP 0.1 mM
Description: as §2, §3, §4

[5] = biological target: Human recombinant KHK-A (Homo sapiens (Human), UniProt P50053); assay: as above; format: biochemical; settings: recombinant isozyme 6 nM, fructose 2 mM, ATP 0.1 mM
Description: as §2, §3, §4

[6] = biological target: human KHK-C in engineered HepG2 cells (Homo sapiens (Human), UniProt P50053); assay: Cell-based potency assay (KHK-C-overexpressing HepG2 assay), F1P by LC/MS; settings: fructose 30 mM, 5 min, F1P produced, geomean
Description: Testing inhibition effect of compounds against human KHK-C in engineered HepG2 cells.
Engineered HepG2 cells were generated using methods known to those of skill in the art. Briefly, HepG2 cells were incubated with lentivirus carrying a transgene encoding human KHK-C, and grown under antibiotic selection.
as §1, with “KHK-C-overexpressing HepG2” for “HepG2”, “T-182 cm^2 flask” for “100 mm plates”, “25-40×10^6” for “5-8×10^6”, “aspirated, the flask was washed with 10 mL PBS,” for “aspirated”, “3-5” for “5-10”
The cells were then placed in a 96-well plate at 20,000-40,000 cells per well and grown for 20-28 hours at 37° C. to allow adherence.
Inhibitor compounds were diluted in DMSO to 50 μM, then serially diluted with MEM media (ThermoFisher). Final inhibitor concentration ranged from 5000 nM to 0.32 nM.
The RPMI medium was removed from the plate of confluent cells. The plate was then incubated for 35 min at 37° C. with 0.1 mL of the diluted inhibitor compounds in MEM. After, an additional 0.1 mL of the diluted inhibitor compounds in MEM with fructose, or 0.1 mL of MEM media without inhibitor compound and/or fructose; yielding a final concentration of fructose at 30 mM was added. The plate was subsequently incubated for 5 min at 37° C., then placed on ice to stop the reactions.
Next 200 μL of cold 80% (v/v) methanol:water was added to al wells and placed in the −80° C. freezer for 1 hour with an adhesive seal. The plate was vortexed and cell debris removed by centrifugation. To measure F1P produced, the resulting supernatant fraction was analyzed by LC/MS.

Chain of Rat recombinant KHK-A (Q02974 other isoform, or with tags, fused parts or gaps): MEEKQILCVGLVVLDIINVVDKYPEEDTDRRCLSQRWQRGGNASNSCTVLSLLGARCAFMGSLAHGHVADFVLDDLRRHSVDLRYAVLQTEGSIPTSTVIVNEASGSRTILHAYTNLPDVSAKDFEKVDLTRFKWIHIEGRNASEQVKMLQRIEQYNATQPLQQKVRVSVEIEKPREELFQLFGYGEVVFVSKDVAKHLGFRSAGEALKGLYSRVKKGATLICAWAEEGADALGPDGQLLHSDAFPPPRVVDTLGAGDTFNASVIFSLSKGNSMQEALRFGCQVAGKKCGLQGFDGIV
Chain of Human recombinant KHK-A (P50053 other isoform, or with tags, fused parts or gaps): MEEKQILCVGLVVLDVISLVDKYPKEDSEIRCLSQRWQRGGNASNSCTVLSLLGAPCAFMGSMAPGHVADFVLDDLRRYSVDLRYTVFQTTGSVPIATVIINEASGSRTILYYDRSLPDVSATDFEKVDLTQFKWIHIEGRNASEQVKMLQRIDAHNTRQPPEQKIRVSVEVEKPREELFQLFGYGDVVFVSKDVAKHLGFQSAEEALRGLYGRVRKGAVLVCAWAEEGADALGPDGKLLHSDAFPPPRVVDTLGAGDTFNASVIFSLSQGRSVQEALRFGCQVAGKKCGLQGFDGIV
Chain of Rat recombinant KHK-C (Q02974 whole entry): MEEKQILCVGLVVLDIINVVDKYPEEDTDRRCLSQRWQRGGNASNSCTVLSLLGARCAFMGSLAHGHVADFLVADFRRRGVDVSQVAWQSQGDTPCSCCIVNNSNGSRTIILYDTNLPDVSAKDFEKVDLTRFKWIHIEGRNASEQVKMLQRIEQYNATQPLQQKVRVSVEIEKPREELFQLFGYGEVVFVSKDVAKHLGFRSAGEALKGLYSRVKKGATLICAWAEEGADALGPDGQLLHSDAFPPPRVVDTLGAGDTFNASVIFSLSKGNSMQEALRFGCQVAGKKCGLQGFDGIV
Chain of human KHK in HepG2 Cells (P50053 whole entry): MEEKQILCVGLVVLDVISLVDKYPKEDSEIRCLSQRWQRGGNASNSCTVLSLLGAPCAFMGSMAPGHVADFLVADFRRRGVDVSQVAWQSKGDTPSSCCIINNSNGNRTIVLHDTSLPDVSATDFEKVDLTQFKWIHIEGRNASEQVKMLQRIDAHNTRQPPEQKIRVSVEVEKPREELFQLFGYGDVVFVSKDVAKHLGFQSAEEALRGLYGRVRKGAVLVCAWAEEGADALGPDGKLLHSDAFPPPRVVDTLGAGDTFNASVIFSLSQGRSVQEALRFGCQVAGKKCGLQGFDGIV
Chain of human KHK-C in engineered HepG2 cells (P50053 whole entry, stated change not applied): as the sequence (P50053 whole entry) above
Chain of Human recombinant KHK-C (P50053 whole entry): as above

`Cc1c(-c2cnn(CC(=O)N3CCNCC3)c2)nc(N2CC[C@@H]2C(F)(F)F)nc1C(F)(F)F` [Compound A1, 2-(4-{2-[(R)-2-(trifluoromethyl)-1-azetidinyl]-5-methyl-6-(trifluoromethyl)-4-pyrimidinyl}-1-pyrazolyl)-1-(1-piperazinyl)-1-ethanone] was tested, and the IC50 [1] was 7 nM, the IC50 [2] was 2.2 nM and the IC50 [3] was 4.06 nM. For the same molecule, the IC50 [4] was 9 nM and the IC50 [5] was 6 nM.

For `O=C(Cn1cc(-c2cc(C(F)(F)F)nc(N3CC[C@@H]3C(F)(F)F)n2)cn1)N1CCNCC1` [Compound A2, 2-(4-{2-[(R)-2-(trifluoromethyl)-1-azetidinyl]-6-(trifluoromethyl)-4-pyrimidinyl}-1-pyrazolyl)-1-(1-piperazinyl)-1-ethanone], the IC50 [1] was 48 nM, the IC50 [2] was 9 nM and the IC50 [3] was 31 nM. For the same molecule, the IC50 [4] was 26 nM and the IC50 [5] was 13.5 nM.

`Cc1c(-c2cnn(CC(=O)N3CCNCC3)c2)nc(N2CC[C@@H]2C)nc1C(F)(F)F` [Compound A3, 2-(4-{2-[(S)-2-methyl-1-azetidinyl]-5-methyl-6-(trifluoromethyl)-4-pyrimidinyl}-1-pyrazolyl)-1-(1-piperazinyl)-1-ethanone] showed an IC50 [1] of 25 nM, an IC50 [2] of 2.9 nM and an IC50 [3] of 7.48 nM. The IC50 [4] was 8.3 nM, the IC50 [5] was 4.6 nM and the IC50 [6] was 186 nM.

For `CCc1c(-c2cnn(CC(=O)N3CCNCC3)c2)nc(N2CC[C@@H]2C)nc1C(F)(F)F` [Compound A6, 2-(4-{2-[(S)-2-methyl-1-azetidinyl]-5-ethyl-6-(trifluoromethyl)-4-pyrimidinyl}-1-pyrazolyl)-1-(1-piperazinyl)-1-ethanone], the IC50 [1] was 70 nM, the IC50 [2] was 2.3 nM and the IC50 [3] was 15.7 nM. The IC50 [4] was 11 nM and the IC50 [5] was 8.8 nM.

For `C[C@H]1CCN1c1nc(-c2cnn(CC(=O)N3CCNCC3)c2)cc(C(F)F)n1` [Compound A7, 2-(4-{2-[(S)-2-methyl-1-azetidinyl]-6-(difluoromethyl)-4-pyrimidinyl}-1-pyrazolyl)-1-(1-piperazinyl)-1-ethanone], the IC50 [1] was 332 nM, the IC50 [2] was 46 nM and the IC50 [3] was 231 nM. For the same molecule, the IC50 [4] was 120 nM and the IC50 [5] was 160 nM.

`C[C@H]1[C@H](O)CN1c1nc(-c2cnn(C3CN(C)C3)c2)cc(C(F)F)n1` [Compound A9, (2S,3R)-1-{6-(difluoromethyl)-4-[1-(1-methyl-3-azetidinyl)-4-pyrazolyl]-2-pyrimidinyl}-2-methyl-3-azetidinol] showed an IC50 [2] of 10 nM, an IC50 [3] of 40.5 nM and an IC50 [4] of 37 nM. For the same molecule, the IC50 [5] was 22 nM and the IC50 [6] was 184 nM.

`CCc1c(-c2cnn(C3CN(C)C3)c2)nc(N2C[C@@H](O)[C@@H]2C)nc1C(F)(F)F` [Compound A11, (2S,3R)-1-{5-ethyl-4-[1-(1-methyl-3-azetidinyl)-4-pyrazolyl]-6-(trifluoromethyl)-2-pyrimidinyl}-2-methyl-3-azetidinol] gave an IC50 [1] of 4 nM, an IC50 [2] of 0.96 nM and an IC50 [3] of 2.09 nM. It also gave an IC50 [4] of 2.1 nM and an IC50 [5] of 8.5 nM.

Molecule `Cc1c(-c2cnn(CC(=O)N3CCNCC3)c2)nc(N2CC[C@@H]2C(F)(F)F)nc1C(F)F` [Compound A18, 2-(4-{2-[(R)-2-(trifluoromethyl)-1-azetidinyl]-6-(difluoromethyl)-5-methyl-4-pyrimidinyl}-1-pyrazolyl)-1-(1-piperazinyl)-1-ethanone] has an IC50 [1] of 11 nM, an IC50 [2] of 4.1 nM and an IC50 [3] of 7.42 nM. For the same molecule, the IC50 [4] was 9.5 nM and the IC50 [5] was 5.3 nM.

Molecule `COc1c(-c2cnn(C3CN(C)C3)c2)nc(N2C[C@@H](O)[C@@H]2C)nc1C(F)F` [Compound A19, (2S,3R)-1-{6-(difluoromethyl)-5-methoxy-4-[1-(1-methyl-3-azetidinyl)-4-pyrazolyl]-2-pyrimidinyl}-2-methyl-3-azetidinol] has an IC50 [1] of 23 nM, an IC50 [2] of 6.6 nM and an IC50 [3] of 10.6 nM. It also gave an IC50 [4] of 17 nM and an IC50 [5] of 27 nM.

`Cc1c(-c2cnn(CC(=O)N3CCNCC3)c2)nc(N2CC[C@@H]2C)nc1C(F)F` [Compound A24, 2-(4-{2-[(S)-2-methyl-1-azetidinyl]-6-(difluoromethyl)-5-methyl-4-pyrimidinyl}-1-pyrazolyl)-1-(1-piperazinyl)-1-ethanone] gave an IC50 [1] of 28 nM, an IC50 [2] of 5.2 nM and an IC50 [3] of 14.7 nM. For the same molecule, the IC50 [4] was 17 nM and the IC50 [5] was 31 nM.

Molecule `C[C@H]1[C@H](O)CN1c1nc(-c2cnn(C3CN(C)C3)c2)c(F)c(C(F)(F)F)n1` [Compound A27, (2S,3R)-1-{5-fluoro-4-[1-(1-methyl-3-azetidinyl)-4-pyrazolyl]-6-(trifluoromethyl)-2-pyrimidinyl}-2-methyl-3-azetidinol] has an IC50 [1] of 9 nM and an IC50 [3] of 4.09 nM.

`O=C(Cn1cc(-c2cc(C(F)(F)F)nc(N3CC[C@@H]3C(F)F)n2)cn1)N1CCNCC1` [Compound A33, 2-(4-{2-[(R)-2-(difluoromethyl)-1-azetidinyl]-6-(trifluoromethyl)-4-pyrimidinyl}-1-pyrazolyl)-1-(1-piperazinyl)-1-ethanone] showed an IC50 [2] of 23 nM, an IC50 [3] of 90.9 nM and an IC50 [4] of 86 nM. For the same molecule, the IC50 [5] was 65 nM.

`O=C(Cn1cc(-c2nc(N3CC[C@@H]3C(F)F)nc(C(F)(F)F)c2Cl)cn1)N1CCNCC1` [Compound A38, 2-(4-{2-[(R)-2-(difluoromethyl)-1-azetidinyl]-5-chloro-6-(trifluoromethyl)-4-pyrimidinyl}-1-pyrazolyl)-1-(1-piperazinyl)-1-ethanone] was tested, and the IC50 [1] was 36 nM, the IC50 [2] was 7.3 nM and the IC50 [3] was 3.64 nM. It also gave an IC50 [4] of 14 nM and an IC50 [5] of 6.5 nM.

Work on `Cc1c(-c2cnn(CC(=O)N3CCNCC3)c2)nc(N2CC[C@@H]2C(F)F)nc1C(F)F` [Compound A42, 2-(4-{2-[(R)-2-(difluoromethyl)-1-azetidinyl]-6-(difluoromethyl)-5-methyl-4-pyrimidinyl}-1-pyrazolyl)-1-(1-piperazinyl)-1-ethanone] yielded an IC50 [1] of 43 nM, an IC50 [2] of 10 nM and an IC50 [3] of 18.3 nM. For the same molecule, the IC50 [4] was 26 nM and the IC50 [5] was 13 nM.

`Cc1c(-c2cnn(CC(=O)N3CCNCC3)c2)nc(N2CC[C@@H]2C(F)F)nc1C(F)(F)F` [Compound A43, 2-(4-{2-[(R)-2-(difluoromethyl)-1-azetidinyl]-5-methyl-6-(trifluoromethyl)-4-pyrimidinyl}-1-pyrazolyl)-1-(1-piperazinyl)-1-ethanone] showed an IC50 [1] of 23 nM, an IC50 [2] of 6.8 nM and an IC50 [3] of 8.03 nM. For the same molecule, the IC50 [4] was 12 nM and the IC50 [5] was 4.5 nM.

`C[C@H]1CCN1c1nc(-c2cnn(CC(=O)N3CCNCC3)c2)cc(C(F)(F)F)n1` [Compound C2, reference compound] showed an IC50 [1] of 91 nM and an IC50 [6] of 457 nM.

Molecule `C[C@H]1[C@H](O)CN1c1nc(-c2cnn(C3CN(C)C3)c2)cc(C(F)(F)F)n1` [Compound C3, reference compound] has an IC50 [1] of 4 nM and an IC50 [6] of 191 nM.

From US20240409530A1, “Disubstituted Pyrimidine Compounds for Ketohexokinase Inhibition” (Centennial Therapeutics, LLC, priority 2023, published 2024)
